Source: a melting point compilation (Tetko et al.; mined from patent text by program, amines drawn as free bases though some values may be those of a salt)

melting point | SMILES
65 to 66 °C | CCOC(=O)CCc1nc(-c2ccc(Cl)cc2)co1
92 to 94 °C | CCNC=C(C(=O)C=Cc1ccccc1)C(=O)OC
140 to 142 °C | CCCc1c2c(c([N+](=O)[O-])c3c(=O)cc(C(=O)OCC)oc13)CCCC2
91 to 92 °C | CN(c1ccc(OC(F)(F)C(F)F)cc1)c1c([N+](=O)[O-])cc([N+](=O)[O-])cc1C(F)(F)F
39 to 41 °C | COc1c(Br)c(C)nc(C)c1-c1ccc(Oc2ccc(OC(F)(F)F)cc2)cc1
187 to 189 °C | COc1ccccc1C=CC=C(CC(N)C(=O)O)C(=O)O (stereo unspecified)
119 to 121 °C | O=C(N1CC(CCl)c2c1ccc1ccc(S(=O)(=O)N(Cc3ccccc3)Cc3ccccc3)cc21)C(F)(F)F (stereo unspecified)
145 to 147 °C | CN(CCc1ccccc1)C(=O)C(O)C(O)c1ccccc1 (stereo unspecified)
75 to 77 °C | CC(C)[C@H](NC(=O)OCc1ccccc1)C(=O)c1ccc(OCc2ccccc2)cc1
240 to 242 °C | NC1([C@@H]2CCN(c3cc4c(cc3F)c(=O)c(C(=O)O)cn4[C@@H]3C[C@@H]3F)C2)CC1
93 to 95 °C | CCOC(=O)\C=C(C)/C=C/C=C(C)/C=C/C1=C(C)C[C@@H](O)CC1(C)C
161 to 164 °C | COc1ccc(C(=O)OC2C=C(C)C(=O)CC(C)(C)C2O)cc1OC (stereo unspecified)
195 °C | OCCOc1ccc(-c2nc(-c3ccc(OCCO)cc3O)nc(-c3ccc(OCCO)cc3O)n2)c(O)c1
87 to 88 °C | N#Cc1sccc1[N+](=O)[O-]
201 to 202 °C | OCCc1c(-c2ccccc2)[nH]c2nccnc12
91 to 92 °C | O=CNC1Cc2ccc([N+](=O)[O-])cc2C1 (stereo unspecified)
155 °C | O=C(C=Cc1ccccc1O)C=Cc1ccccc1O
207 to 209 °C | O=C1N(Cc2ccc3ncnn3c2)c2ccccc2C12COc1cc3c(cc12)OCCO3 (stereo unspecified)

melting point | SMILES
152 to 154 °C | O=S(=O)(NCC1CCN(C[C@H]2COc3ccc(Cl)cc3O2)CC1)c1ccc(Cl)cc1
164 to 167 °C | O=C1C2=NCCCN2c2cc(Cl)ccc21
126 °C | COC(=O)c1ccc2oc3ccccc3c2c1C(=O)OC
125 to 127 °C | CC(C)(C)NCC(O)COc1ccc(N)cc1 (stereo unspecified)
142 to 143 °C | O=C(O)CN1CC(c2ccc(Cl)cc2)CC1=O (stereo unspecified)
126 to 128 °C | Cc1ccc(-c2nn(C(C)(C)C(=O)N(C)C)cc2C)c(Cl)c1
216 to 217 °C | CN1CCN(c2cc3c(F)cccc3c(=O)[nH]2)CC1CO (stereo unspecified)
202 to 205 °C | Cc1ccc(-c2ccc3c(c2)C=C(C(=O)Nc2ccc(C(O)c4ccccn4)cc2)C(C)O3)cc1 (stereo unspecified)
203 to 204 °C | COC(=O)C1=Cc2cc(-c3ccc(C)cc3)ccc2S(=O)(=O)CC1
85 °C | CCOC(=O)c1cccc(NC(=O)NCC(=O)N2[C@@H](c3ccccc3)SC[C@H]2C(=O)OC(C)(C)C)c1
136 to 137 °C | Cc1ccc(C2c3c(C)c(N4CCN(c5cccnc5)CC4)c(C)c(C)c3OC2(C)C)cc1 (stereo unspecified)
43 °C | Cc1cc2ccccc2n1-c1ccc(F)cc1
136 to 139 °C | CSc1cc(C)nc(SC)c1NC(=O)CN1CCN(CCSc2nc3ccccc3s2)CC1
158 to 159 °C | Cc1c(Cc2cccc(C(F)(F)F)c2)oc2c(-c3cccc(C(=O)NCCC#N)c3)cccc12
82 °C | Cc1cc(-n2ccnc2)c2cccc(OCc3c(Cl)ccc(S(=O)(=O)N4CCC[C@H]4C(=O)NCCc4ccccn4)c3Cl)c2n1
192 to 193 °C | O=C(O)Cc1ccc(CCNS(=O)(=O)c2ccc(F)cc2)cc1
148 to 150 °C | COC(=O)CNC(=O)[C@H](NC(=O)OCC1c2ccccc2-c2ccccc21)C(C)C
131 to 132 °C | c1ccc2cc(-c3nc(COc4ccc(CCCn5ccnc5)cc4)co3)ccc2c1

Second part, the compound before the results:

SMILES | melting point
O=Cc1ccc(-c2ccc(O)cc2)c2sccc12 | 202 to 204 °C
CC(=O)N(C(C)=O)C(C)=C1CC2C3CC4C2C4C13 (stereo unspecified) | 112 to 128 °C
COc1nc(Cl)cc2nc(S(=O)(=O)Nc3nn(C)cc3Br)nn12 | 230 to 232 °C
O=C(CCC=C(c1ccccc1)c1ccccc1)NCCCCn1ccnc1 | 102 to 103 °C
COc1ccc(C2(CCO)CCN(C(=O)c3cc(OC)c(OC)c(OC)c3)C2)cc1OC (stereo unspecified) | 60 to 62 °C
CCCC(CCC)N1Cc2c(C(=O)OC)cc(NS(C)(=O)=O)cc2C1=O | 173 °C
CCOP(=S)(OCC)Oc1nsc(N(C)C)n1 | 48 °C
Cc1c(OCC(F)(F)F)ccnc1CSc1nc2cc(N3CCCCC3)c(F)cc2[nH]1 | 160 to 161 °C
COc1c(N2CCC(NC3CC3)C(C)C2)c(F)c(N)c2c(=O)c(C(=O)O)cn(C3CC3)c12 (stereo unspecified) | 218 to 220 °C
O=C(Nc1cc(-c2cccc(-c3ccccc3)c2)[nH]n1)C1Cc2ccccc2C1 | 108 to 110 °C
CCc1c(Cl)cc(C(C)(C)C)c(O)c1-c1nc2ccc(S(=O)(=O)C(F)(F)F)cc2c(=O)[nH]1 | 285 to 286 °C
CCNc1cc(C)c(S(=O)(=O)C[N+](=O)[O-])c(C)c1 | 143 °C
CNc1ncc(CO)c(NC2CC2)n1 | 139 to 140 °C
CC(=O)SCC(=O)NCCSC=CSCCNC(=O)CSC(C)=O | 129 °C
O=C(CC1CCCCCC1=O)c1ccccc1 (stereo unspecified) | 42 to 44 °C
O=C(c1cc(N2CCC3(CC2)OCCO3)ccn1)N(O)Cc1ccccc1 | 98 to 102 °C
CCC1=Nc2cc(Cl)ccc2CC(c2sccc2C)N1C (stereo unspecified) | 94 to 96 °C
CC(C)(C)OC(=O)Nc1ccc2ccc(S(C)(=O)=O)cc2c1 | 179 to 180 °C
COc1ccc(-n2nc(Sc3cccc(Cl)c3)c(C)c(C#N)c2=O)cc1 | 123 to 124 °C
CC(C)n1cc(C(=O)Nc2nncs2)c2ccc(Cl)cc21 | 274 to 275 °C
O=[N+]([O-])c1ccc(-n2cncn2)cc1 | 198 °C
CC(=O)Nc1csc(Br)n1 | 165 °C

SMILES | melting point
Cc1cc(C)c(C(=O)COc2ccc(C(=O)C(=O)O)cc2)c(C)c1 | 144 to 145 °C
Cc1nnc2c(-c3cccc(C(F)(F)F)c3)cncn12 | 157 to 159 °C
CCCn1nc2c(N)nc3ccccc3c2c1CC(C)(C)NC(=O)c1ccncc1 | 148 to 150 °C
COc1ccc(S(=O)(=O)NCC(C(=O)NO)C2(CC(C)C)CCN(CCc3ccccc3)C2=O)cc1 (stereo unspecified) | 195 to 196 °C
CCOC(=O)CC(=O)NNC(=O)c1cc2cccc(N(C)S(=O)(=O)c3cccs3)c2[nH]1 | 119 to 121 °C
CCCCCCNc1ncnc(N(C)C)c1N | 123 to 125 °C
Oc1cc(Cl)c(-n2cnnn2)cc1Oc1ccc(Cl)cc1Cl | 147 to 148 °C
O=C(NCc1ccc(Cl)cc1)c1cnc2ccc(CO)cc2c1O | 288 to 289 °C
CCOC(=O)c1cn(C2CC2)c2c(F)c(C#Cc3cc(Cc4cnc(N)nc4N)cc(OC)c3OC)c(F)cc2c1=O | > 230 °C
CC(=O)SCC(CSC(C)=O)C(=O)N1c2ccccc2CCC1C(=O)O (stereo unspecified) | 149 to 151 °C
CC(C)c1noc(-c2ncn3c2[C@@H]2CCCN2C(=O)c2c(Cl)cccc2-3)n1 | 187 to 188 °C
Cc1ccc(Nc2ccccn2)c(C)c1[N+](=O)[O-] | 178 to 179 °C
COc1nc(I)cc(C(O)Cc2ccccc2)c1C (stereo unspecified) | 69 to 70 °C
O=C1NCC(c2ccc3[nH]c(-c4ccncc4)cc3c2)=NN1 | 313 to 316 °C
c1ccc2cc(N3CCNCC3)ncc2c1 | 95 to 96 °C
Cc1ccc(NCC2CCN(C3CCCC3)CC2)c(C(=O)Nc2ccc(Cl)cn2)c1 | 173 to 175 °C
Cc1cc(-c2noc(C(F)(F)F)n2)cc(C)c1OCCCc1cncs1 | 95 to 97 °C
O=C(Nc1ccc(C[C@H](NS(=O)(=O)N2CCCCCC2)C(=O)O)cc1)c1c(Cl)cncc1Cl | 185 °C
c1ccc(-c2nc(COc3cccc(Cc4nnn[nH]4)c3)cs2)cc1 | 160 to 161 °C
COC(=O)CCCc1cc2nc(Cl)ccc2n1S(=O)(=O)c1ccc(Cl)cc1Cl | 100 to 101 °C
CCOC(=O)c1c(S(=O)(=O)Nc2c(F)cccc2F)nn2c(C)cc(C)nc12 | 88 to 110 °C
NC(=O)NCc1ccc(Cl)cc1 | 186 to 189 °C

SMILES | melting point
O=C1c2ccccc2-c2ccc(F)cc21 | 113 to 115 °C
CCN1CCN(CC)c2cc(N)ccc2C1=O | 140 to 141 °C
COc1ccccc1CNc1ccc2cc(Nc3ncccn3)ccc2n1 | 175 °C
O=[N+]([O-])c1cnccc1NCc1c(F)cccc1F | 148 to 149 °C
CC(C1=NC(C)(C)CO1)c1ccc(-c2ccc(F)cc2F)c(O)c1 (stereo unspecified) | 188 to 194 °C
Cc1cc(C[C@H](N)[C@H](O)c2ccc(F)cc2)cc(OC(F)(F)C(F)F)c1 (racemic) | 96 to 98 °C
CC1OC(=O)N(Cc2ccccc2[N+](=O)[O-])C1=O (stereo unspecified) | 114 °C
COc1cc(OC)nc(C2(C#N)OC(=O)c3c(-c4cccs4)ccnc32)n1 (stereo unspecified) | 187 to 188 °C
COc1ccc2ccc(NC(=O)c3cccc(OC(C)=O)c3)nc2n1 | 172 °C
CN(SC(Cl)(Cl)Cl)C(=O)ON=C1SCC(=O)NC1(C)C | 189 to 190 °C
COc1ccc(C(=O)NCCc2ccc(-c3ccc(O)cc3)cc2)c(OC)c1 | 190 °C
CCNS(=O)(=O)Nc1ccc(C(O)(C(F)(F)F)C(F)(F)F)cc1 | 178 to 179 °C
COC(=O)c1ccccc1Oc1ccc(C)cc1[N+](=O)[O-] | 71 to 73 °C
CCNC(=O)c1c(Cl)cccc1[Si](C)(C)C1CC2CCC1C2 (stereo unspecified) | 124 to 125 °C
CN(C)CCn1c(=O)[nH]c2ccccc21 | 106 to 108 °C
COc1cc(C)c2c(c1)C(=O)CCC2 | 55 °C
CCCN1CCN(CCCOc2ccc3nc(C#N)nc(NCC(C)(C)C)c3c2)CC1 | 102 to 104 °C
COc1nc(C)c(C)nc1NC(=O)N1CCN(c2ccccc2C(C)C)CC1 | 165 to 167 °C
Cc1c(Cc2cccc(C(F)(F)F)c2)oc2cccc(O)c12 | 91 to 92 °C
CN(C)c1c(C(=O)c2ccccc2)[nH]c2cc(Cl)ccc12 | 178 to 180 °C
OCc1cccc(-c2nn(Cc3ccccc3)c3ccccc23)c1 | 98 to 99 °C
